From EP0390654B1, “Aminobenzenesulfonic acid derivative” (Mitsubishi Chemical Corporation, priority 1989, dated 1990) come the findings set out here.

Series [1] concerns Papillary muscle of right ventricle. The series is described as follows: Inhibition of the cardiotonic activity of isoproterenol (developed tension) in isolated papillary muscle, as index of inhibiting Ca²⁺ overload into cells. Particulars: Drug concentration 10⁻³ M; inhibition of developed tension increased by isoproterenol. On the set-up: species or system male Hartley-strain guinea-pigs. On the procedure: For evaluation of the extent of inhibiting Ca²⁺ overload into cells, which is the pharmacological activity of the compound of the present invention, inhibition of the cardiotonic activity of isoproterenol by the compounds of the present invention was measured.
That is to say, since isoproterenol has been known to cause Ca²⁺ overload by excessive Ca²⁺ influx into cardiac muscle cells (Fleckenstein A., Janke J., Doring H., Leder O.; Recent advances in Studies on cardiac structure and metabolism, Myocardial Biology, Vol. 4, pp. 563 - 580 (1974)), the compound which inhibits the activity of isoproterenol can inhibit Ca²⁺ overload into cells.
Papillary muscle of right ventricle isolated from male Hartley-strain guinea-pigs (body weight: 250 to 350 g) was suspended in an organ bath filled with a nutrient solution (Krebs-Henseleit solution). The temperature of the nutrient solution was maintained at 32 °C, and a gas mixture of 95 % oxygen and 5 % carbon dioxide was aerated. The papillary muscle was applied with a resting tension of about 0.5 g, and stimulated with platinum electrodes by an electric pulse wave of a duration of 1 msec, a frequency of 1 Hz and a voltage higher by 15 % than the threshold value. The developed tension of the papillary muscle was measured through a tension transducer and recorded with a polygraph. After the specimen was stabilized for about 90 minutes, isoproterenol ([…]) was added into the organ bath so that developed tension could be increased by 100 % or more, and at the point when the maximum reaction was obtained, the compounds of the present invention were added into the organ bath, and % inhibition of the developed tension increased by isoproterenol was measured.

A further series relates to isolated heart of rat. Nature of the series: Protective effect on ischemic myocardium, Langendorff-perfused isolated heart (ischemia 90 minutes, then reperfusion). Details: species or system Male Wister rats. Particulars: for Developed tension (%): % of value in equilibration period, 30 minutes after reperfusion, Control 32.5; for Rise in resting tension: just before reperfusion, Control 0.72. On the procedure: For the evaluation of the protective effect of ischemic myocardium, two parameters (rise in resting tension and decrease in developed tension), indices of myocardial injury, were measured in the myocardial ischemic model using isolated heart of rat.
It is reported that drugs which have the protective effect on ischemic myocardium attenuates the rise in resting tension and decrease in developed tension induced by Ca²⁺ overload into myocardial cells when the heart is exposed to ischemia. (Araki, H. & Lefer, AM.: Role of prostacyclin in the preservation of ischemic myocardial tissue in the perfused cat heart. Circ. Res., 47: 757-763, 1980).
Male Wister rats (250-350 g) were killed and their hearts excised. The hearts were then arranged for coronary perfusion with Krebs-Henseleit solution (37 °C, aerated with a gas mixture of 95 % O₂ - 5 % CO₂) according to the method of Langendorff. Tension development was monitored with a force displacement transducer attached via a cotton ligature to the ventricular apex with a resting tension of 1.5 g. After a equilibration period of 1 hour, myocardial ischemia was induced by lowering perfusion pressure from 80 cm H₂O to 12 cm H₂O for 90 minutes. The heart was then reperfused with the previous perfusion pressure of 80 cm H₂O. Rise in resting tension (g) just before reperfusion and developed tension (%) (% of value in equilibration period) 30 minutes after reperfusion were measured.

The nature of series [2]: Acute toxicity, 50 % lethal dose (LD₅₀). Particulars: mouse, in vivo, male mice. On the procedure:
Among compounds of the present invention, the compound No. 110 was tested for its acute toxicity.
Compound No. 110 was administered to male mice (18 - 25 g) for determination of 50 % lethal dose (LD₅₀). Two routes of administration tested were as follows: • 1) intravenous (into tail vein) administration in which calculation of LD₅₀ was according to up and down method and • 2) oral administration in which calculation of LD₅₀ was according to probit method. Compound No. 110 was diluted in physiological salt solution (0.9 % sodium chloride) for intravenous administration and distilled water for oral administration.

What is called LD50 is the dose expected to kill half of the subjects tested. Higher therefore signals a less toxic substance.

Consider `CCCc1ccc(N2CCN(Cc3ccc(OC)c(OC)c3)CC2)c(S(=O)(=O)O)c1` [Compound No. 66], for which, in series [1], the “Inhibition (%)” value turned out to be 52.4%.

Regarding `O=S(=O)(O)c1cc(-c2ccccc2)ccc1N1CCNCC1` [compound 91], the “Inhibition (%)” value in series [1] was 17.2%.

Turning to `O=S(=O)(O)c1cc(Cl)ccc1N1CCNCC1` [compound 93], the “Inhibition (%)” value in series [1] was found to be 28.0%.

In the case of `CCCc1ccc(N2CCN(Cc3ccc(OC)c(OC)c3OC)CC2)c(S(=O)(=O)O)c1` [Compound No. 69, 2-[4-(2,3,4-trimethoxybenzyl)-1-piperazinyl]-5-n-propylbenzenesulfonic acid], in series [1], the “Inhibition (%)” value was 21.4%.

For the molecule `Cc1ccc(N2CCNCC2)c(S(=O)(=O)O)c1` [Compound No. 12, 2-(1-piperazinyl)-5-methylbenzenesulfonic acid], the “Inhibition (%)” value in series [1] turned out to be 18.5%.

Regarding `CC(C)c1ccc(N2CCNCC2)c(S(=O)(=O)O)c1` [compound 111], the “Inhibition (%)” value in series [1] came out at 27.5%.

`O=S(=O)(O)c1cc(Br)ccc1N1CCNCC1` [compound 94]: the “Inhibition (%)” value in series [1] turned out to be 18.5%.

As to `CCCc1ccc(N2CCCN(C)CC2)c(S(=O)(=O)O)c1` [compound 89], in the series on isolated heart of rat (Drug concentration 10⁻⁵ M), the “Developed tension (%)” value turned out to be 58.4% and the “Rise in resting tension” value worked out at 0.25 g.

With `CCCc1ccc(N2CCNCC2)c(S(=O)(=O)O)c1.Cl` [Compound No. 110, 2-(1-piperazinyl)-5-n-propylbenzenesulfonic acid hydrochloride], the results for the “Developed tension (%)” value with isolated heart of rat (Drug concentration 10⁻⁵ M), in the series on isolated heart of rat (Drug concentration 10⁻⁶ M) and in the series on isolated heart of rat (Drug concentration 10⁻⁷ M) were 77.0%, 65.4% and 32.2%, respectively. Besides, the “Rise in resting tension” value is given as 0.09 g with isolated heart of rat (Drug concentration 10⁻⁵ M), 0.33 g in the series with isolated heart of rat (Drug concentration 10⁻⁶ M) and 0.48 g with isolated heart of rat (Drug concentration 10⁻⁷ M). For the same molecule, the median lethal dose (LD50) in series [2] (Intravenous administration (tail vein), up and down method) turned out to be 63 mg/kg; in series [2] (Oral administration, probit method), 2800 mg/kg.
